Data as given in article PMC8465942, “Cyano- and Ketone-Containing Selenoesters as Multi-Target Compounds against Resistant Cancers” (Cancers, 2021).
Several values for one entry are separate records, joined by “and”; a condition that tells them apart may be missing. Equal entries are not always repeated. Entries after “also recorded” stand apart in the source; their conditions may differ. Marks after values point to notes of the source that are not given here.

Legend:
[1] = test system: HepG2 (hepatocellular carcinoma); experiment: Cytotoxicity on HepG2 cells; assay type: cell-based, human; conditions: ratio IC50 non-tumour cells / IC50 cancer cells
[2] = test system: B16 (skin melanoma); experiment: Cytotoxicity on B16 cells; assay type: cell-based, murine; conditions: ratio IC50 non-tumour cells / IC50 cancer cells
[3] = target: ABCB1 (P-glycoprotein) in Colo 320 colonic adenocarcinoma cells (Homo sapiens, UniProt P08183); experiment: ABCB1 inhibition, rhodamine 123 accumulation by flow cytometry; conditions: for FAR (fluorescence activity ratio): rhodamine 123, FAR above 2 considered effective
Experimental: The inhibition of the ABCB1 multidrug efflux pump ABCB1 by the tested compounds was evaluated using flow cytometry, measuring the retention of rhodamine 123 by ABCB1 (P-glycoprotein) in Colo 320 colonic adenocarcinoma cells. Briefly, the cell number of colonic adenocarcinoma cells were adjusted to 2 × 10^6 cells/mL, re-suspended in serum-free RPMI-1640 medium in the case of colonic adenocarcinoma cells, and distributed in 0.5 mL aliquots into Eppendorf centrifuge tubes. The tested compounds were added at different concentrations (0.2 and 2 µM; from 1 and 10 mM stock solutions, respectively), and the samples were incubated for 10 min at room temperature. Tariquidar was applied as the positive control (0.2 µM final concentration), and DMSO was used as the solvent control (at 2 v/v%). Next, 10 µL (5.2 µM final concentration) of the fluorochrome rhodamine 123 (Sigma, St. Louis, MO, USA) was added to the samples and the cells were incubated for 20 min at 37 °C. After the incubation period, the cells were washed twice and re-suspended in 0.5 mL PBS for analysis. The fluorescence of the gated cell population was measured with a Partec CyFlow® flow cytometer (Partec, Münster, Germany). The percentage of the mean fluorescence intensity was calculated for the treated MDR cells as compared with the untreated cells. The results were obtained from a representative flow cytometry experiment in which at least 20,000 individual cells of the overall population were evaluated for the rhodamine 123 retained inside the cells. The fluorescence activity ratio (FAR) was calculated based on the following equation, which relates the measured fluorescence values: FAR=Colo320treated / Colo320control/Colo205treated / Colo205control
The parameters evaluated from flow cytometry experiments were: Forward Scatter Count (FSC, provides information about cell size); Side Scatter Count (SSC, proportional to cell granularity or internal complexity); FL-1 (Mean fluorescence of the cells), and Fluorescence Activity Ratio (FAR), which was calculated by the equation given above.

[4] = test system: resistant Colo 320 colon adenocarcinoma cells expressing the ABCB1 transporter; experiment: Checkerboard combination assay with doxorubicin; assay type: cell-based, human
Experimental: A checkerboard microplate method was applied to study the effect of drug interactions between the selenocompounds and the chemotherapeutic drug doxorubicin on resistant Colo 320 colon adenocarcinoma cells expressing the ABCB1 transporter. Results were expressed in terms of the combination index (CI) values at 50% growth inhibition (ED50), which were determined by using CompuSyn software to plot 4 or 5 data points for each ratio.
To perform the experiment, the dilutions of doxorubicin were made in a horizontal direction in 100 µL, and the dilutions of the Se-compounds were made vertically in the microtiter plate in a volume of 50 µL. The cells were re-suspended in the culture medium and distributed into each well in 50 µL portions containing 6000 cells. The plates were incubated for 72 h at 37 °C in a CO2 incubator. The cell growth rate was determined after MTT staining. At the end of the incubation period, 20 μL of MTT solution was added to each well. After incubation at 37 °C for 4 h, 100 μL of SDS was added to each well and the plates were further incubated at 37 °C overnight. The optical density (OD) was measured at 540/630 nm with the Multiscan EX ELISA reader.

[5] = test system: MDR Colo 320 adenocarcinoma cells; experiment: Apoptosis induction (Annexin V-FITC / propidium iodide); assay type: cell-based, human; conditions: 2 µM; for Cell Death (%) Treated Sample-Untreated Sample / Early Apoptosis (%) Treated Sample-Untreated Sample / Late Apoptosis (%) Treated Sample-Untreated Sample: 3 h induction; for Apoptosis Quotient (%): total apoptotic events relative to reference M627 (20 µM)
Experimental: The assay was carried out using an Annexin V-FITC Apoptosis Detection Kit Cat. No. PF 032 from Calbiochem (EMD Biosciences. Inc. La Jolla. CA), according to the manufacturer's instructions. […] The cell suspension was distributed into 1 mL aliquots (1 × 10^6 cells) into a 24-well microplate and incubated overnight at 37 °C, with 5% CO2. On the following day, the medium was removed and a fresh medium was added to the cells. The cells were incubated in the presence of Se-compounds for 3 h at 37 °C. […] After a 3 h induction period, the culture medium was removed, the cells were washed with PBS, and a fresh medium was added to the cells. The 24-well plates were incubated overnight at 37 °C, with 5% CO2. After the incubation, the supernatant was collected in a microfuge tube and 200 μL of 0.25 trypsin (Trypsin-Versene) was added to the wells until the cells detached from the surfaces of the wells. The cells were centrifuged at 2000× g for 2 min at room temperature, the supernatant was removed, and the cells were re-suspended in fresh serum-free medium. After this procedure, apoptosis assay was carried out according to the rapid protocol of the kit using Annexin V-FITC and propidium iodide staining. […] The data were analysed by FlowJo^TM software (BD Biosciences, San Jose, NJ, USA).

[6] = ratio 0.7:1, starting conc. 6 µM
[7] = ratio 1.4:1, starting conc. 6 µM
[8] = ratio 2.8:1, starting conc. 6 µM
[9] = ratio 5.6:1, starting conc. 6 µM
[10] = ratio 11.2:1, starting conc. 6 µM
[11] = ratio 22.4:1, starting conc. 6 µM
[12] = in at least one of the ratios tested
[13] = ratio 1.2:1, starting conc. 10 µM
[14] = ratio 2.4:1, starting conc. 10 µM
[15] = ratio 4.8:1, starting conc. 10 µM
[16] = ratio 9.6:1, starting conc. 10 µM
[17] = ratio 19.2:1, starting conc. 10 µM
[18] = ratio 38.4:1, starting conc. 10 µM

Chain of ABCB1 (P-glycoprotein) in Colo 320 colonic adenocarcinoma cells (P08183 whole entry): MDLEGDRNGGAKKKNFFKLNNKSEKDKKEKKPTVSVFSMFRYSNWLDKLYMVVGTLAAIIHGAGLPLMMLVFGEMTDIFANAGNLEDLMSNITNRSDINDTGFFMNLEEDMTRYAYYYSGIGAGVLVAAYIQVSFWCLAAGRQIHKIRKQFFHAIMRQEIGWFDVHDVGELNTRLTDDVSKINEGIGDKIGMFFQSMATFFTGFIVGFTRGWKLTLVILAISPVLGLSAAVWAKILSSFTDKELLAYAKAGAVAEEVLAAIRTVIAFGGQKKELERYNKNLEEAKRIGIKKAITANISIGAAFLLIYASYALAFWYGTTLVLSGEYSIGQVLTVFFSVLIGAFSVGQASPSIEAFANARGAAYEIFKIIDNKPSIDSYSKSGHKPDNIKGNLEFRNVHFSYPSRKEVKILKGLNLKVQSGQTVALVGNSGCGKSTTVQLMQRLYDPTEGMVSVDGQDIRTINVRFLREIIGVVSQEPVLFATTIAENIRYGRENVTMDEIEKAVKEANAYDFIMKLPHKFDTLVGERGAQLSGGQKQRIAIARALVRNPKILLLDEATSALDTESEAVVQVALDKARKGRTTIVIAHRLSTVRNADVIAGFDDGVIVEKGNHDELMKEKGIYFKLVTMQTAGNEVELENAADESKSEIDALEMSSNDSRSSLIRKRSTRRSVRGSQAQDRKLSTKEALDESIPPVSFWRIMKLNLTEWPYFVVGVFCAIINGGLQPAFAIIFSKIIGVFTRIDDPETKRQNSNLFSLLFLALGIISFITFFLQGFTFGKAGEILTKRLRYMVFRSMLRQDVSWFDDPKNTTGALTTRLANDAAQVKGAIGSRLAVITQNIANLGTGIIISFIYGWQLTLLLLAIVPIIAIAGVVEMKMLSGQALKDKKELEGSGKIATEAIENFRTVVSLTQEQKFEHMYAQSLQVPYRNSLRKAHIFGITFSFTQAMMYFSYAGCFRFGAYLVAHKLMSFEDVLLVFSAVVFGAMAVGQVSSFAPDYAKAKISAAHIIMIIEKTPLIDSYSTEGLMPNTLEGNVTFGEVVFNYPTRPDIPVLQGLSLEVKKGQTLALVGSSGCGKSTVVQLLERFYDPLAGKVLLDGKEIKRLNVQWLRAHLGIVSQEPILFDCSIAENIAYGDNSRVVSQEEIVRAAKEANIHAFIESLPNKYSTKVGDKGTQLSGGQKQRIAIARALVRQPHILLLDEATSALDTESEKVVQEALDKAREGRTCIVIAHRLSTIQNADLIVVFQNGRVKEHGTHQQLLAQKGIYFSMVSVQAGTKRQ

SMILES	SI MRC-5/HepG2 [1]	SI MRC-5/B16 [2]	FSC (Forward Scatter Count) ([3]; 0.2 µM)	SSC (Side Scatter Count) ([3]; 0.2 µM)	FAR (fluorescence activity ratio) ([3]; 0.2 µM)	FSC (Forward Scatter Count) ([3]; 2 µM)	SSC (Side Scatter Count) ([3]; 2 µM)	FAR (fluorescence activity ratio) ([3]; 2 µM)	Total Apoptotic Events (Early + Late, %) [5]	Cell Death (%) Treated Sample-Untreated Sample [5]	Early Apoptosis (%) Treated Sample-Untreated Sample [5]	Late Apoptosis (%) Treated Sample-Untreated Sample [5]	Apoptosis Quotient (%) [5]	Interaction with doxorubicin [4, 12]	melting point	other results
CC(=O)C[Se]C(=O)c1ccccc1F [K2, Se-(2-Oxopropyl) 2-Fluorobenzoselenoate]	1.1	2.1	1916	1061	1.41	1945	1156	37.35	34.2%	0.95%	0.3%	33.9%	69.2%			Type of Interaction [4, 6]: Antagonism; Type of Interaction [4, 7]: Antagonism; Type of Interaction [4, 8]: Slight antagonism; Type of Interaction [4, 9]: Additive effect; Type of Interaction [4, 10]: Antagonism; Type of Interaction [4, 11]: Antagonism
CC(=O)C[Se]C(=O)c1ccccc1C(F)(F)F [K4, Se-(2-Oxopropyl) 2-(Trifluoromethyl)benzoselenoate]		1.4	1808	861	1.76	1830	1008	4.99	19.5%	5.95%	3.4%	16.1%	39.5%	synergistic manner; also recorded: interact synergistically		Type of Interaction ([4]; ratio 0.6:1, starting conc. 5 µM): Synergism; Type of Interaction ([4]; ratio 1.2:1, starting conc. 5 µM): Additive effect; Type of Interaction ([4]; ratio 2.4:1, starting conc. 5 µM): Additive effect; Type of Interaction ([4]; ratio 4.8:1, starting conc. 5 µM): Moderate synergism; Type of Interaction ([4]; ratio 9.6:1, starting conc. 5 µM): Slight synergism; Type of Interaction ([4]; ratio 19.2:1, starting conc. 5 µM): Additive effect
CC(=O)C[Se]C(=O)c1ccc(F)c(Cl)c1 [K6, Se-(2-Oxopropyl) 3-Chloro-4-fluorobenzoselenoate]		2.8	1996	873	1.48	1833	1043	29.4 and 29.42	32.3%	0.17%	4.5%	27.8%	65.4%	synergistic manner; also recorded: interact synergistically		Interaction with doxorubicin ([4]; in all ratios tested): synergistic interaction; Type of Interaction [4, 6]: Synergism; Type of Interaction [4, 7]: Moderate synergism; Type of Interaction [4, 8]: Synergism; Type of Interaction [4, 9]: Synergism; Type of Interaction [4, 10]: Synergism; Type of Interaction [4, 11]: Synergism
N#CC[Se]C(=O)c1cccc(F)c1 [N2, Se-(Cyanomethyl) 3-Fluorobenzoselenoate]	>6 *	>6 *												synergistic manner; also recorded: synergistic effect		Type of Interaction ([4]; ratio 1.7:1, starting conc. 15 µM): Synergism; Type of Interaction ([4]; ratio 3.4:1, starting conc. 15 µM): Antagonism; Type of Interaction ([4]; ratio 6.8:1, starting conc. 15 µM): Synergism; Type of Interaction ([4]; ratio 13.6:1, starting conc. 15 µM): Moderate antagonism; Type of Interaction ([4]; ratio 27.2:1, starting conc. 15 µM): Antagonism; Type of Interaction ([4]; ratio 54.4:1, starting conc. 15 µM): Antagonism
N#CC[Se]C(=O)c1ccc(Br)cc1 [N3, Se-(Cyanomethyl) 4-Bromobenzoselenoate]	>6 *	>6 *												synergistic manner; also recorded: synergistic effect	105 to 107 °C	Type of Interaction [4, 13]: Antagonism; Type of Interaction [4, 14]: Strong antagonism; Type of Interaction [4, 15]: Moderate synergism; Type of Interaction [4, 16]: Additive effect; Type of Interaction [4, 17]: Slight antagonism; Type of Interaction [4, 18]: Moderate antagonism
N#CC[Se]C(=O)c1ccccc1C(F)(F)F [N4, Se-(Cyanomethyl) 2-(Trifluoromethyl)benzoselenoate]	>6 *													synergistic manner; also recorded: synergistic effect	65 to 67 °C	Type of Interaction [4, 13]: Antagonism; Type of Interaction [4, 14]: Strong antagonism; Type of Interaction [4, 15]: Moderate synergism; Type of Interaction [4, 16]: Additive effect; Type of Interaction [4, 17]: Slight antagonism; Type of Interaction [4, 18]: Moderate antagonism
N#CC[Se]C(=O)c1cc(C(F)(F)F)cc(C(F)(F)F)c1 [N7, Se-(Cyanomethyl) 3,5-Bis(trifluoromethyl)benzoselenoate]	>6 *													synergistic manner; also recorded: synergistic effect	63 to 65 °C	Type of Interaction ([4]; ratio 0.9:1, starting conc. 8 µM): Antagonism; Type of Interaction ([4]; ratio 1.8:1, starting conc. 8 µM): Strong antagonism; Type of Interaction ([4]; ratio 3.6:1, starting conc. 8 µM): Slight synergism; Type of Interaction ([4]; ratio 7.2:1, starting conc. 8 µM): Antagonism; Type of Interaction ([4]; ratio 14.4:1, starting conc. 8 µM): Antagonism; Type of Interaction ([4]; ratio 28.8:1, starting conc. 8 µM): Additive effect
